pIC50: −log10 of the molar value.
Tests used:
Format in all cases: biochemical
B-Raf V600E = target: T1, B-Raf V600E (Homo sapiens, UniProt P15056, V600E); experiment: AlphaScreen kinase assay, B-Raf V600E; conditions: read-out: IC50, activity toward kinase B-Raf V600E
T1 construct: P4254. pFastBacBD-CDC37 BRAF D437-K722-X, V600E; His6 with pFastBac HT leader (TEV site) (N); made in house; host or cells: Sf9 (baculovirus; chaperone CDC37 co-expressed)

Kdr = target: T2, Kdr (Homo sapiens, UniProt P35968); experiment: Z'-Lyte FRET kinase assay (Invitrogen), Kdr; conditions: read-out: IC50, activity toward kinase Kdr
T2 construct: purchased Invitrogen (assay run by Invitrogen)
T2 sequence (P35968 20-1356): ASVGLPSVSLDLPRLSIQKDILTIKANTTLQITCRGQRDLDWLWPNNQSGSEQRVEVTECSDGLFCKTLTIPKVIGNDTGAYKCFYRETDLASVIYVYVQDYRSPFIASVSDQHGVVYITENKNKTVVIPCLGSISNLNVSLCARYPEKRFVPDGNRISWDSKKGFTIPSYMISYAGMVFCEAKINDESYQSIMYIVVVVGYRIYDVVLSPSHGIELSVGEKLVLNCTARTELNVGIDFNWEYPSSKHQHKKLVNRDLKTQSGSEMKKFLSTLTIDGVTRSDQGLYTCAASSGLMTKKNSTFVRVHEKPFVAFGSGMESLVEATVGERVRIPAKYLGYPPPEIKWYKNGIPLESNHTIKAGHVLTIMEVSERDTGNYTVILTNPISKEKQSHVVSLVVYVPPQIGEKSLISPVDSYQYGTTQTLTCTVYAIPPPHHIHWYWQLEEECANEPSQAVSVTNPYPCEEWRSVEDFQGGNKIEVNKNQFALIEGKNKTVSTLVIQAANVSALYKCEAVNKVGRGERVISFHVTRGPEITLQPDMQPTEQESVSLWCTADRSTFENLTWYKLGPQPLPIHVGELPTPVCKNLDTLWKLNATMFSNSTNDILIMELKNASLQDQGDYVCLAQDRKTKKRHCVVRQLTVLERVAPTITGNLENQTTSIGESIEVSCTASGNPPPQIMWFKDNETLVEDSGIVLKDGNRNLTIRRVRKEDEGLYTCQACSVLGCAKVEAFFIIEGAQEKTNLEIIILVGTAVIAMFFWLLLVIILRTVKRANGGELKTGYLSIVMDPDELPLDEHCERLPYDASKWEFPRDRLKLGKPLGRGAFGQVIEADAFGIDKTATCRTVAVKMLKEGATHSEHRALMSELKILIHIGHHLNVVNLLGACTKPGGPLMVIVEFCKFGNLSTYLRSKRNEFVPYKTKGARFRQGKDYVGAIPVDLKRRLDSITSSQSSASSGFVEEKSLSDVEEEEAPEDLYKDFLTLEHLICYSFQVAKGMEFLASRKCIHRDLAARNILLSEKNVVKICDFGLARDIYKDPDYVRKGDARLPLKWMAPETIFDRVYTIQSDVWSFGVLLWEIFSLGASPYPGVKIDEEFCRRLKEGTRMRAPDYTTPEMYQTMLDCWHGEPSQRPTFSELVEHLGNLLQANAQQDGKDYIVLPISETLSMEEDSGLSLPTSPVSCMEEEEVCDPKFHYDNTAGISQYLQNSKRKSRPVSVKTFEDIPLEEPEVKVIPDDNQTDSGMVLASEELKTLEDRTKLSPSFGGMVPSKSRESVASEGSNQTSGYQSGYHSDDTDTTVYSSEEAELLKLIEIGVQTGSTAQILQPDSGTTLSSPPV

Ret = target: T3, Ret (Homo sapiens, UniProt P07949); experiment: AlphaScreen kinase assay, Ret; conditions: read-out: IC50, activity toward kinase Ret
T3 construct: P1378.pET-SF BI-PTP RET H661-R1012 HIS; made in house
T3 sequence (P07949 with tags, fused parts or gaps): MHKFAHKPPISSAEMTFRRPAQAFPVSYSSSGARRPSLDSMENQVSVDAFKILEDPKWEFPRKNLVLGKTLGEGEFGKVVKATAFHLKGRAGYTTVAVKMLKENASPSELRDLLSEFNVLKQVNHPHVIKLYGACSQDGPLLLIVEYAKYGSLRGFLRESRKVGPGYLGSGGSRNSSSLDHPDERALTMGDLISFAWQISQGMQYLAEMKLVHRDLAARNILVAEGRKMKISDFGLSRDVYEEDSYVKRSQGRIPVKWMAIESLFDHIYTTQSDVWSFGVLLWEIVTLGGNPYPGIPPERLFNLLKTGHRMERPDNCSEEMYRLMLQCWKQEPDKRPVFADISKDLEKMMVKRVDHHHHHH

Jak3 = target: T4, Jak3 (Homo sapiens, UniProt P52333); experiment: AlphaScreen kinase assay, Jak3; conditions: read-out: IC50, activity toward kinase Jak3
T4 sequence (P52333 1-1124): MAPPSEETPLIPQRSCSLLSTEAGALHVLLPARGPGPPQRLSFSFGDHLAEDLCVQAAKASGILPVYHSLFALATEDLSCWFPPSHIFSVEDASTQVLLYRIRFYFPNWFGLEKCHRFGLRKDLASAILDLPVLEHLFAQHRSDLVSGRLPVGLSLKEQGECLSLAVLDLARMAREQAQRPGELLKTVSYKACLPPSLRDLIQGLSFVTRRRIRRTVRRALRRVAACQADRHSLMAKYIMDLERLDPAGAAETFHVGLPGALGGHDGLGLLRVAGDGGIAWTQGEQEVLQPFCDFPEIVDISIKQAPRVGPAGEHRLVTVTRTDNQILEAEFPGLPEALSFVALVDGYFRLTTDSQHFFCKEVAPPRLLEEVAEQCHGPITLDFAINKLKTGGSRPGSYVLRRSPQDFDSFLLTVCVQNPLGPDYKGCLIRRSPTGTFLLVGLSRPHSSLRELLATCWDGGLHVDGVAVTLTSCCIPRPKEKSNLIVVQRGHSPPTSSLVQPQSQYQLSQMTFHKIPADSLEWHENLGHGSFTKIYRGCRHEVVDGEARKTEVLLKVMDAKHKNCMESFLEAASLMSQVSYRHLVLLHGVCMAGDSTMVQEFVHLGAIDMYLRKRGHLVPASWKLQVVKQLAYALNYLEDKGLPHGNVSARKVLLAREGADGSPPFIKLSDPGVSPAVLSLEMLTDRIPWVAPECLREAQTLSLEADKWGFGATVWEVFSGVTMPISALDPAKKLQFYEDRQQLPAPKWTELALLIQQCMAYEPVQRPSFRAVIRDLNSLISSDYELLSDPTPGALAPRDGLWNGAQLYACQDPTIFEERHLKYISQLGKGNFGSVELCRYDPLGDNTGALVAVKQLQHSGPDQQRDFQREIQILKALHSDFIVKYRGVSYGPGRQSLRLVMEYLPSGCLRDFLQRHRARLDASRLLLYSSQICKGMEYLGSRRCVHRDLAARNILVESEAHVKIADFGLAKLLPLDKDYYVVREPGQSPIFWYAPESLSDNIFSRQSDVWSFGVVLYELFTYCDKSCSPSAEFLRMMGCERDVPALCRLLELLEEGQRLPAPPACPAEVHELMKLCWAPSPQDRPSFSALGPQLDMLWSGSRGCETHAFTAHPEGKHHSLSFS
From the text: AlphaScreen assay was used to screen additional kinases. The assay is similarly dependent on the phosphorylation of a peptide substrate. In this assay, an antibody that recognizes phosphorylated substrate is bound to an acceptor bead. The peptide substrate is attached to biotin, which binds to a donor head that contains streptavidin. Thus phosphorylated substrate is bound by antibody and streptavidin, bringing the donor and acceptor heads into close proximity when kinase is not inhibited. The donor produces singlet oxygen which results in emission from the acceptor when they are in close proximity. Conversely, when kinase is inhibited, the donor and acceptor beads are not associated and the emission from the acceptor is reduced.
AlphaScreen assays were done using compounds dissolved in DMSO to a concentration of 20 mM. The compounds were diluted accordingly to the desired final concentrations in each sample well, using 1:3 serial dilution for a total of 8 concentration points.

MAP2K1 = target: T5, MAP2K1 (Homo sapiens, UniProt Q02750); experiment: Z'-Lyte FRET kinase assay (Invitrogen), MAP2K1; conditions: read-out: IC50, activity toward kinase MAP2K1
T5 construct: purchased Invitrogen (assay run by Invitrogen)
T5 sequence (Q02750 whole entry): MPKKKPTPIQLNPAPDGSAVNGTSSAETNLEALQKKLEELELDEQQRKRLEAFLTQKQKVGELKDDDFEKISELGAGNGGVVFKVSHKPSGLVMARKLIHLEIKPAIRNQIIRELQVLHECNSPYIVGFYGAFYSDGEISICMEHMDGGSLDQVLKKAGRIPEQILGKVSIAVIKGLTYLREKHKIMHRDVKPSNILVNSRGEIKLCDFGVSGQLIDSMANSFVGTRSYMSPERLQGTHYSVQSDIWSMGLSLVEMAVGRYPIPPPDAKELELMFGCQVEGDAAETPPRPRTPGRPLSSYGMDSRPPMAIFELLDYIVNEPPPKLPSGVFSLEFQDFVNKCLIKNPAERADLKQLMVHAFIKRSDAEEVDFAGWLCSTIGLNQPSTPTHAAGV

Stk6 = target: T6, Stk6 (Homo sapiens, UniProt O14965); experiment: Z'-Lyte FRET kinase assay (Invitrogen), Stk6; conditions: read-out: IC50, activity toward kinase Stk6
T6 construct: purchased Invitrogen (Carlsbad, Calif.), screening service
T6 sequence (O14965 1-403): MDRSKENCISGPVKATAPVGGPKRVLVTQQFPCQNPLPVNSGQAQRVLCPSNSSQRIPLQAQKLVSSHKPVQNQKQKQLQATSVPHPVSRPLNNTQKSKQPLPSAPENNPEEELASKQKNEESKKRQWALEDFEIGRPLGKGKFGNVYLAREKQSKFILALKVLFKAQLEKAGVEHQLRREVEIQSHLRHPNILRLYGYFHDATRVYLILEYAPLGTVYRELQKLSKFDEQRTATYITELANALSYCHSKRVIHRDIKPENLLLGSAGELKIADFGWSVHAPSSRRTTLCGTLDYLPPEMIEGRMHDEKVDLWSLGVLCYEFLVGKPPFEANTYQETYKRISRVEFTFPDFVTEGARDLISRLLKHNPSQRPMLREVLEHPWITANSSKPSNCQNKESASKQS

Btk = target: T7, Btk (Homo sapiens, UniProt Q06187); experiment: Z'-Lyte FRET kinase assay (Invitrogen), Btk; conditions: read-out: IC50, activity toward kinase Btk
T7 construct: purchased Invitrogen (assay run by Invitrogen)
T7 sequence (Q06187 whole entry): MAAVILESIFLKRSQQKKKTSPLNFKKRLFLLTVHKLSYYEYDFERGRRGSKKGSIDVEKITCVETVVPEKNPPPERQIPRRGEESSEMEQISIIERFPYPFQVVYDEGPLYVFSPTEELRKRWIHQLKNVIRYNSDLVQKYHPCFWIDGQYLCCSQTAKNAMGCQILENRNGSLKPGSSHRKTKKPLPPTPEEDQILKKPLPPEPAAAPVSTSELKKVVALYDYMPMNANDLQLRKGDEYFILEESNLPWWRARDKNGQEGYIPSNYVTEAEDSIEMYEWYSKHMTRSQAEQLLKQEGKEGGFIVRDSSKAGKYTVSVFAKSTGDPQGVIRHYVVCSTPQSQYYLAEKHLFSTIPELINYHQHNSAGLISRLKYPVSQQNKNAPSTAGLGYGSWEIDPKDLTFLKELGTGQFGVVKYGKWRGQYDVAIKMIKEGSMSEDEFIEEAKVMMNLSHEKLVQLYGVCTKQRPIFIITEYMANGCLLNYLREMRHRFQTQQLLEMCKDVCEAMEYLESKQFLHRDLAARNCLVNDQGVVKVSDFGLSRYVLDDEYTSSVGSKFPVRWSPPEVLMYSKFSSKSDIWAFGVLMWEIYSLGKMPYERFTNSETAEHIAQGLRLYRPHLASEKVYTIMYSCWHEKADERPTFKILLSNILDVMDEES

Jnk3 = target: T8, Jnk3 (Homo sapiens, UniProt P53779); experiment: AlphaScreen kinase assay, Jnk3; conditions: read-out: IC50, activity toward kinase Jnk3
T8 construct: purchased Upstate Biotechnology

Jnk2 = target: T9, Jnk2 (Homo sapiens, UniProt P45984); experiment: AlphaScreen kinase assay, Jnk2; conditions: read-out: IC50, activity toward kinase Jnk2
T9 construct: purchased Roche Protein Expression Group (Indianapolis, IN)
In short: (§1)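 Emission from acceptor beads reports phosphorylated biotin-peptide bridging antibody-coated acceptor and streptavidin donor beads; loss of signal reflects kinase inhibition. Eight-point, threefold dilution series prepared from 20 mM DMSO stocks.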

PKC theta = target: T10, PKC theta (Homo sapiens, UniProt Q04759); experiment: Z'-Lyte FRET kinase assay (Invitrogen), PKC theta; conditions: read-out: IC50, activity toward kinase PKC theta
T10 construct: purchased Invitrogen (Carlsbad, Calif.), screening service
T10 sequence (Q04759 whole entry): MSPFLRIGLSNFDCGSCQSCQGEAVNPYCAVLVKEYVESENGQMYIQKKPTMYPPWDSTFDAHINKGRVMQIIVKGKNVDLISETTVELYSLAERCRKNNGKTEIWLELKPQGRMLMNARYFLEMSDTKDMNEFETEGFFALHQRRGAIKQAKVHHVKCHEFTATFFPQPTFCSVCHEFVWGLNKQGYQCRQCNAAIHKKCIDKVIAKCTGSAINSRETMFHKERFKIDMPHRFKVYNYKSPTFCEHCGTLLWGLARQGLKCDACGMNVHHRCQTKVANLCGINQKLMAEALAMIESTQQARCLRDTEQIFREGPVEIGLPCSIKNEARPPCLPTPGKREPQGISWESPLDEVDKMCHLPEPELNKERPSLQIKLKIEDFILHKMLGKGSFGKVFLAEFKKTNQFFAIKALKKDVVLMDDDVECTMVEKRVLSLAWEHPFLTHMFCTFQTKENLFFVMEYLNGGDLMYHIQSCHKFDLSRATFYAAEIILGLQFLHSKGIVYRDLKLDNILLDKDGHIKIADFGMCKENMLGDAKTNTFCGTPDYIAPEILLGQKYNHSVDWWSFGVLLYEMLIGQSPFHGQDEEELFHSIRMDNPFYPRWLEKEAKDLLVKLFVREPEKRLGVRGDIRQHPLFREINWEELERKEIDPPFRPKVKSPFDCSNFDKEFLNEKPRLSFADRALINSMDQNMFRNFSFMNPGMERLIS
From the text: The effect of potential modulators of kinase activity can be measured in a variety of different assays known in the art. For example, direct radiometric, indirect FRET or AlphaScreen assays may be used to assess the level of phosphorylation of a substrate in the presence of test compounds in order to determine the inhibitory affect of the compound on the kinase. Invitrogen (Carlsbad, Calif.) uses a FRET based assay for Btk, EGFR, EphB2, Flt3, lrak4, Kdr, MAP2K1, MAPKAPK2, PDGFRB, PKC theta, Stk6 and Yes. For these assays, compounds of the invention were screened by Invitrogen using Z′-Lyte™ kinase assay.
Briefly, the Invitrogen kinase assay involves use of a specific peptide substrate optimized for each kinase, containing a fluorophore at each end that make up the FRET pair. The peptide sensitivity to proteolytic cleavage depends on phosphorylation of the peptide. Non-phosphorylated peptide is cleaved by a protease while peptide phosphorylated by the kinase is not cleaved. Cleavage of the peptide disrupts the FRET between the donor (coumarin) and acceptor (fluorescein) fluorophores, resulting in an increase in the ratio of donor emission to acceptor emission. The emission ratio of coumarin to fluorescein is used to assess the reaction progress. The extent of phosphorylation is determined from the emission ratio, which is low when the kinase is active (phosphorylated peptide is not cleaved, FRET pair connected) or higher for inhibited kinase (non-phosphorylated peptide is cleaved, FRET pair separated). Thus, the assay involves a kinase reaction in the presence of varying concentrations of a given compound, a development reaction with site specific protease, and detection of the fluorescent emission ratio of coumarin and fluorscein. […] Reaction conditions for each kinase are determined to provide optimal reaction times, incubation temperature, kinase and ATP concentrations. Test samples are made up in 1× kinase buffer (50 mM HEPES pH 7.5, 50 mM MgCl2, 5 mM EGTA, 0.05% BRIJ-35) and compound at desired concentration prepared in DMSO such that the final DMSO is 1%. […] Typically, assay plates are prepared to 10 μl final volume per sample, adding 2.5 μl of compound at 4× the desired concentration in 4% DMSO (serial dilution of compound provides concentration curve), 5 μl of the desired kinase mixed with Z′-LYTE™ peptide substrate (2× in 2× kinase buffer, final peptide at 2 μM), and 2.5 μl of 4×ATP solution. All kinase except for MAP2K1 were at 10 μM ATP in the kinase reaction, while MAP2K1 was at 100 μM. Samples are mixed and the kinase reaction is incubated 1 hour at room temperature, after which 5 μl of development solution is added and mixed. After incubation for another 1 hour at room temperature, 5 μl of stop reagent is added to each sample and mixed. The fluorescence signals are measured to determine the emission ratio.

FGFR1 = target: T11, FGFR1 (Homo sapiens, UniProt P11362, C488A/C584S); experiment: AlphaScreen kinase assay, FGFR1; conditions: read-out: IC50, activity toward kinase FGFR
T11 construct: P1351.pET N6 BI-PTP FGFR A458-E765-X C488A, C584S; made in house; host or cells: E. coli (PTP1B co-expressed)
T11 sequence (P11362 458-765 C488A/C584S): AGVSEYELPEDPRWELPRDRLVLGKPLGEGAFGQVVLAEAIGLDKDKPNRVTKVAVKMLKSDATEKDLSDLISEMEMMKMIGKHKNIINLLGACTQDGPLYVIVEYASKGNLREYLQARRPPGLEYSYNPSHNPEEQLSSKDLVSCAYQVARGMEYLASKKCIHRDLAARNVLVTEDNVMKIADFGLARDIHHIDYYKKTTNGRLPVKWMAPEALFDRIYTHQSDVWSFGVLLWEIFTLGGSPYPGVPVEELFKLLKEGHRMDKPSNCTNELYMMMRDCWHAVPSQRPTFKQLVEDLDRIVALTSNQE

Yes = target: T12, Yes (Homo sapiens, UniProt P07947); experiment: Z'-Lyte FRET kinase assay (Invitrogen), Yes; conditions: read-out: IC50, activity toward kinase Yes
T12 construct: purchased Invitrogen (Carlsbad, Calif.), screening service
In short: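 10 μM ATP, 2 μM peptide, 1% DMSO final; HEPES pH 7.5 buffer with MgCl2/EGTA/BRIJ-35. Kinase rxn 1 h RT, protease development 1 h RT, stop, read donor/acceptor ratio. Compound titrated.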

Pyk2 = target: T13, Pyk2 (Homo sapiens, UniProt Q14289); experiment: AlphaScreen kinase assay, Pyk2; conditions: read-out: IC50, activity toward kinase Pyk2
T13 construct: purchased Upstate Biotechnology
T13 sequence (Q14289 whole entry): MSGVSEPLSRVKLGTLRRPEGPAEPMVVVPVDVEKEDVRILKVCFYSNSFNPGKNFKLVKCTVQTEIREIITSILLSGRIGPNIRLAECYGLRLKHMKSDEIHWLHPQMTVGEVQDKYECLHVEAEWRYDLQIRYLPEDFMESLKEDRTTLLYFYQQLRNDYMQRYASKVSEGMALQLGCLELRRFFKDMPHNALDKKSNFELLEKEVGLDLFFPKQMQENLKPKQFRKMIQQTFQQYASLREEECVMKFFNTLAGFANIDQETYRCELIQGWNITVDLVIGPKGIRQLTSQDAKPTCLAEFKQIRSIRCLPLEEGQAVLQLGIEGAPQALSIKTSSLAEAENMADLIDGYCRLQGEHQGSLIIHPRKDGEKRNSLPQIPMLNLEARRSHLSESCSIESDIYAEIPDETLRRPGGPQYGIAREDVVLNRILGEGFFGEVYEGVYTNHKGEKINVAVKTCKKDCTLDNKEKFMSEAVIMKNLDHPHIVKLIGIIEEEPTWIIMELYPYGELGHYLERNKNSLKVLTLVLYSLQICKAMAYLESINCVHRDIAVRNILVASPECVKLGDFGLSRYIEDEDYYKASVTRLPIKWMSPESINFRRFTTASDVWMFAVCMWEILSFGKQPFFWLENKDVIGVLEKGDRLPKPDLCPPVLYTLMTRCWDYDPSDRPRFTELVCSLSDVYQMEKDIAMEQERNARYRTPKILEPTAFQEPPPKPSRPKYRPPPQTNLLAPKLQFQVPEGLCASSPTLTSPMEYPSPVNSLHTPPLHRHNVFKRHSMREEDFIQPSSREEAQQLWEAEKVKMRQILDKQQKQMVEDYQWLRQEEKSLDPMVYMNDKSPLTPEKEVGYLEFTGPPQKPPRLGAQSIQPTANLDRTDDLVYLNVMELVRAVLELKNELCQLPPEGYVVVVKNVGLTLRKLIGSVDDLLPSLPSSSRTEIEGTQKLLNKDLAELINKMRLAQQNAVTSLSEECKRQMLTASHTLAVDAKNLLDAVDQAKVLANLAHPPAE

Flt4 = target: T14, Flt4 (Homo sapiens, UniProt P35916); experiment: AlphaScreen kinase assay, Flt4; conditions: read-out: IC50, activity toward kinase Flt4
T14 construct: purchased ProQinase GmbH (Freiburg, Germany)
In short: as §1

T1 sequence (P15056 with tags, fused parts or gaps V600E): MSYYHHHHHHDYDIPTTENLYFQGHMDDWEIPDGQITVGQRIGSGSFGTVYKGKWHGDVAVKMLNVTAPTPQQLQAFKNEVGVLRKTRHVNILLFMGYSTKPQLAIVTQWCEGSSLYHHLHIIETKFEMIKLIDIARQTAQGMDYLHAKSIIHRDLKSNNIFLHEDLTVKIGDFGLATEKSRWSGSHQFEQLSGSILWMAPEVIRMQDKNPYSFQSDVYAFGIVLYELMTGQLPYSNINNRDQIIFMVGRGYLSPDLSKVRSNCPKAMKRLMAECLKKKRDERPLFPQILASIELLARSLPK

Row | Structure (SMILES) | pIC50 (B-Raf V600E) | pIC50 (Kdr) | pIC50 (Ret) | pIC50 (Jak3) | further results
1 | CCCC(=O)Nc1ccc(F)c(C(O)c2c[nH]c3ncc(OC)cc23)c1F (stereo not shown) [Compound P-01367] |  |  |  | ≥ 5.00 | 
2 | O=C(c1ccccc1F)c1c[nH]c2nccc(-c3cccnc3)c12 [Compound P-0061] |  | ≥ 5.00 | ≥ 5.00 | ≥ 5.00 | pIC50 (MAP2K1): ≥ 5.00; pIC50 (Stk6): ≥ 5.00; pIC50 (Btk): ≥ 5.00
3 | COc1ccc(-c2c[nH]c3ncccc23)cc1OC [Compound P-0238] |  |  |  |  | pIC50 (Jnk3): ≥ 5.00; pIC50 (Jnk2): ≥ 5.00; pIC50 (PKC theta): ≥ 5.00
4 | CS(=O)(=O)c1cccc(-c2ccnc3[nH]cc(C(=O)c4ccccc4F)c23)c1 [Compound P-0138] |  |  | ≥ 5.00 | ≥ 5.00 | pIC50 (Yes): ≥ 5.00; pIC50 (Btk): ≥ 5.00
5 | CC(C)(C)OC(=O)Nc1ccc(F)c(C(O)c2c[nH]c3ncc(Br)cc23)c1F (stereo not shown) [Compound P-0318, {3-[(5-Bromo-1H-pyrrolo[2,3-b]pyridin-3-yl)-hydroxy-methyl]-2,4-difluoro-phenyl}-carbamic acid tert-butyl ester] | ≥ 5.00 |  |  | ≥ 5.00 | pIC50 (Pyk2): ≥ 5.00
6 | NC(=O)c1cccc(-c2cnc3[nH]cc(Cc4ccccc4O)c3c2)c1 [Compound P-01385] |  |  |  | ≥ 5.00 | 

Continued, in another order:

Row | pIC50 (B-Raf V600E) | pIC50 (Kdr) | pIC50 (Ret) | pIC50 (Jak3) | Structure (SMILES) | further results
7 | ≥ 5.00 | ≥ 5.00 | ≥ 5.00 | ≥ 5.00 | O=C(O)/C=C/c1cccc(-c2ccnc3[nH]cc(C(=O)c4cc(F)ccc4F)c23)c1 [Compound P-0141] | 
8 | ≥ 5.00 | ≥ 5.00 | ≥ 5.00 | ≥ 5.00 | O=C(c1ccccc1F)c1c[nH]c2nccc(-c3ccccc3F)c12 [Compound P-0730] | pIC50 (FGFR1): ≥ 5.00
9 | ≥ 5.00 |  | ≥ 5.00 | ≥ 5.00 | O=C(c1cc(F)ccc1F)c1c[nH]c2nccc(-c3cc(F)cc(F)c3)c12 [Compound P-0215] | pIC50 (FGFR1): ≥ 5.00; pIC50 (Flt4): ≥ 5.00
10 | ≥ 5.00 |  | ≥ 5.00 | ≥ 5.00 | O=C(c1cc(F)ccc1F)c1c[nH]c2nccc(-c3ccsc3)c12 [Compound P-0119] | pIC50 (FGFR1): ≥ 5.00; pIC50 (Stk6): ≥ 5.00
11 | ≥ 5.00 |  |  | ≥ 5.00 | OCc1cccc(-c2ccnc3[nH]cc(Sc4cccc(F)c4)c23)c1 [Compound P-0187] | pIC50 (Stk6): ≥ 5.00
12 | ≥ 5.00 | ≥ 5.00 | ≥ 5.00 | ≥ 5.00 | O=C(O)/C=C/c1cccc(-c2ccnc3[nH]cc(C(=O)c4ccccc4F)c23)c1 [Compound P-0108] | pIC50 (MAP2K1): ≥ 5.00; pIC50 (Btk): ≥ 5.00

From US8415469B2, “Compounds and methods for kinase modulation, and indications therefor” (Plexxikon Inc., priority 2005, dated 2013)
